Structures are written as SMILES.

Data set [1] relates to core clock gene mRNAs in liver. As to the kind of experiment: Single dose at peak (ZT0) or nadir (ZT10) of Cry1, liver core clock gene mRNAs. The note with it: db/db mice; single dose 50 mg/kg at ZT0 or ZT10; liver 7.5 hours later. Type of data set: in vivo, mouse. The method, then: For compounds that interact directly with the core clock mechanism, the time of dosing may be critical for maximizing their effects. […] The former (ZT0) is coincident with the peak of Cry1 and Bmal1 protein in mouse liver and the latter (ZT10) corresponds to the approximate nadir of Cry1 and Bmal1. Liver tissue was taken 7.5 hours later for each, and the samples were examined for core clock gene mRNAs by RT-qPCR.

The nature of data set [2]: Pharmacokinetic analysis in ICR mice (plasma and liver). Type of data set: in vivo. To be noted: male, plasma, po, mouse, 50 mg/kg P.O., Table 4, read-out: Total Plasma AUC, AUC (0-last). As to the method: Male ICR mice (weighing 30-40 g, Charles River Laboratories) were used for the experiment with n=3 mice for each experimental group (27 mice total for the study). […] Blood and liver tissue were collected at the following time points after administration: 15, 30, 60, 90 minutes, 3, 6, 12 and 24 hours. A control group of animals (TO) was also sampled. Animals were euthanized with CO2 and the blood collected from the heart using cardiac puncture, transferred to an EDTA tube, and then centrifuged at 5400 rpm for 5 minutes at 4° C. The resultant plasma was frozen using dry ice and then stored at −80° C. until ready for assay. Liver tissue was removed from each animal, 0.5 g was collected in an eppendorff, frozen and submitted for pharmacokinetic measurement.

Another data set has as its system Dbp mRNA in whole blood. As to the kind of experiment: Dbp mRNA in whole blood of db/db mice after three daily doses. It counts as in vivo, mouse. To be noted: 100 mg/kg PO once daily for three days at ZT0, blood at ZT7.5. The method, then:
For whole blood RNA studies, male db/db mice (9 weeks of age, The Jackson Laboratory, Bar Harbor, Me.) were used for the experiment with n=8 mice for each experimental group. […] On the final day at ZT7.5 (2:30 pm), animals were euthanized using CO2 asphyxiation, and the blood collected from the heart via cardiac puncture. The blood was placed in RNALater solution to 1.5 ml total volume. Total RNA was prepared using an Ambion Mouse RiboPure Blood RNA Isolation Kit AM1951 as follows. Samples were centrifuged for 3 minutes, discarding the supernatant. Two ml of lysis solution was added and vortexed, transferred to a 15 ml tube followed by the addition of microliters 3M Sodium Acetate. […]
RediPlate 96 RiboGreen RNA Quantification Kit (Invitrogen) RediPlate standard curve was prepared by transferring 20 μl reconstituted RNA standard to a RediPlate well reconstituted in 180 μl RediPlate TE buffer. […] After transferring 5 μl to RediPlate well reconstituted in 195 μl TE buffer and incubating 10 min. at RT, Fluorescence Intensity of wells with standards and samples were read in a Tecan M200 with Excitation set at 480 nm and Emission set at 520 nm with the gain set to ˜70%. […] A standard curve was generated in GraphPad Prism and sample readings (unknowns) are interpolated via linear regression analysis, and the RNA sample concentrations were calculated. […]

Regarding `O=C1NCCN1CC(O)Cn1c2ccc(F)cc2c2cc(F)ccc21` (stereo not drawn) [Compound 72, 1-(3-(3,6-difluoro-9H-carbazol-9-yl)-2-hydroxypropyl)imidazolidin-2-one], the “impact on core clock gene mRNAs in liver, dosing at peak vs nadir” value in data set [1] is listed as “greater relative impact on the clock mRNAs at the peak compared to the nadir”. Further, the AUC(0-t) in data set [2] is 4160 ng·h/mL. Further, in the data set with Dbp mRNA in whole blood, the “Dbp gene expression in whole blood” value is listed as “statistically significant suppression”.
